For orientation: IC50 means the concentration that inhibits the measured activity by half. Higher therefore signals weaker potency in that assay. A word on the GI50: it is the concentration that inhibits growth by half. A high value points to lower sensitivity of the cells.

Some results are limits rather than exact numbers.

The values that follow come from US11111253B2, “6-aryl-7-substituted-3-(1H-pyrazol-5-yl)-7H-[1,2,4]triazolo[3,4-b][1,3,4]thiadiazines as inhibitors of the STAT3 pathway with anti-proliferative activity” (UNIVERSITY OF PITTSBURGH—OF THE COMMONWEALTH SYSTEM OF …, priority 2015, dated 2021).

Assay type in all cases: cell-based
Experiment [1] has as its system STAT1. Kind of experiment: STAT1 assay (selectivity). The conditions noted are these: Table 4. The protocol: (§1) Compound samples (in 3-5 mg quantities) were evaluated in a variety of assays. All compound submissions were fully characterized (1H, 13C, IR, FIRMS), satisfied purity criteria (≥95% LC/MC, ELS).
Experiment [2] relates to STAT3. Kind of experiment: HCS STAT3 assay. The conditions noted are these: Table 4. As to the method:
as §1

Experiment [3] deals with OSC19. Nature of the experiment: Growth inhibition OSC19. The conditions noted are these: Table 6; average of 2 experiments.
Experiment [4] has as its system 686LN. Kind of experiment: Growth inhibition 686LN. The conditions noted are these: Table 6; average of 2 experiments.
Experiment [5] concerns FADU. Kind of experiment: Growth inhibition FADU. The conditions noted are these: Table 6; average of 2 experiments.
Experiment [6] concerns Cal33 cells. Nature of the experiment: Cal33 growth inhibition. The conditions noted are these: Table 5; * average of 2 experiments. As to the method:
as §1

In the case of “1-(5-(6-(4-methoxyphenyl)-7-methyl-7H-[1,2,4]triazolo[3,4-b][1,3,4]thiadiazin-3-yl)-3-phenyl-1H-pyrazol-1-yl)ethanone [8B]”, the IC50 in experiment [1] was greater than 50 µM; in experiment [2], 3.7 µM.

On to `CC1Sc2nnc(-c3cc(-c4ccccc4)n[nH]3)n2N=C1c1ccccc1` (stereo not shown) [compound 21], for which the GI50 is 31.3 µM in experiment [3], 32.2 µM in experiment [4] and 32.7 µM in experiment [5].

Regarding `COc1ccc(C2=Nn3c(nnc3-c3cc(-c4ccc(Cl)cc4)n[nH]3)S[C@@H]2C)cc1` (single isomer, unassigned; ent-1) [24 (ent-1)], halving of growth in experiment [6] (GI50) required 2.7 µM.

Compound “1-(3-(6-(4-Methoxyphenyl)-7-methyl-7H-[1,2,4]triazolo[3,4-b][1,3,4]thiadiazin-3-yl)-5-phenyl-1H-pyrazol-1-yl)ethanone [8A]” displayed an IC50 in experiment [1] of 40.6 ± 7.5 µM.
